{
  "source": "patent US12187696B2",
  "about": "“Urea motif containing compounds and derivatives thereof as antibacterial drugs” (Technische Universität München, priority 2016, dated 2025)",
  "data": [
    {"test_system": "Staphylococcus aureus NCTC8325", "assay": "Minimal inhibitory concentration (MIC) assay", "format": "cell-based", "details": "Staphylococcus aureus, NCTC8325; inhibition of bacterial growth of S. aureus NCTC 8325; obtained by MIC assay", "experimental": "Minimum inhibitory concentrations (MICs) represent the lowest concentration of sample that will inhibit the visible growth of a microorganism after overnight incubation, and was obtained by a 96 well plate-based assay (Thermo Scientific) with serial dilutions of the probes tested. […] Bacteria were diluted in fresh medium to a concentration of 10^5 CFU/mL. In the case of all other bacteria species tested, fresh media was inoculated 1/10000 and directly used for testing. Diluted bacterial cultures (99 μL) were added to various concentrations of probe (1 μL of the respective stock in DMSO). A growth control containing DMSO (1 μL) and cultivated medium (99 μL) and a sterile control containing fresh medium (100 μL) were run on every 96 well plate in triplicates. After incubation at 37° C. with gentle shaking (200 rpm) for 24 h, the dilution series was analysed for microbial growth, usually indicated by turbidity and/or a pellet of bacteria at the bottom of the well. The lowest concentration in the dilution series at which no growth of bacteria could be observed by eye was defined as the minimum inhibitory concentration (MIC) of the probe. MIC values were determined by three independent experiments with at least triplicate runs for each concentration. […] Both compounds were tested against various bacterial strains. […] The assay was performed as described above.", "units": {"IC50": "nM"}, "values": [
      {"smiles": "COC(=O)c1cccc(Oc2ccc(NC(=O)Nc3ccc(Cl)c(C(F)(F)F)c3)cc2)c1", "note": "[Example 1, Methyl 3-(4-(3-(4-chloro-3-(trifluoromethyl)phenyl)ureido)phenoxy)benzoate]", "IC50": 500},
      {"smiles": "O=C(Nc1ccc(C(=O)c2ccccc2)cc1)Nc1ccc(Cl)c(C(F)(F)F)c1", "note": "[Example 2, 1-(4-Benzoylphenyl)-3-(4-chloro-3-(trifluoromethyl)phenyl)urea]", "IC50": 1000},
      {"smiles": "CNC(=O)c1ccc(NC(=O)Nc2ccc(Cl)c(C(F)(F)F)c2)cc1", "note": "[Example 3, 4-(3-(4-Chloro-3-(trifluoromethyl)phenyl)ureido)-N-methylbenzamide]", "IC50": 30000},
      {"smiles": "COc1ccc(NC(=O)Nc2ccc(Cl)c(C(F)(F)F)c2)cc1", "note": "[Example 5, 1-(4-Chloro-3-(trifluoromethyl)phenyl)-3-(4-methoxyphenyl)urea]", "IC50": 3000},
      {"smiles": "O=C(Nc1ccc2c(c1)OCO2)Nc1ccc(Cl)c(C(F)(F)F)c1", "note": "[Example 6, 1-(Benzo[d][1,3]dioxol-5-yl)-3-(4-chloro-3-(trifluoromethyl)phenyl)urea]", "IC50": 10000},
      {"smiles": "COc1ccc(NC(=O)Nc2ccc(Cl)c(C(F)(F)F)c2)cc1OC", "note": "[Example 7, 1-(4-Chloro-3-(trifluoromethyl)phenyl)-3-(3,4-dimethoxyphenyl)urea]", "IC50": 30000},
      {"smiles": "COc1cc(NC(=O)Nc2ccc(Cl)c(C(F)(F)F)c2)cc(OC)c1OC", "note": "[Example 8, 1-(4-Chloro-3-(trifluoromethyl)phenyl)-3-(3,4,5-trimethoxyphenyl)urea]", "IC50": 30000},
      {"smiles": "O=C(Nc1ccc(Cl)c(C(F)(F)F)c1)Nc1cccc2c1OC(F)(F)O2", "note": "[Example 9, 1-(4-Chloro-3-(trifluoromethyl)phenyl)-3-(2,2-difluorobenzo[d][1,3]dioxol-4-yl)urea]", "IC50": 1000},
      {"smiles": "FC1(F)Oc2ccc(NC(=S)Nc3ccc(Cl)c(C(F)(F)F)c3)cc2O1", "note": "[Example 10, 1-(4-Chloro-3-(trifluoromethyl)phenyl)-3-(2,2-difluorobenzo[d][1,3]dioxol-5-yl)thiourea]", "IC50": 1000},
      {"smiles": "O=C(Nc1ccc(Cl)c(C(F)(F)F)c1)Nc1ccc2ccccc2c1", "note": "[Example 11, 1-(4-Chloro-3-(trifluoromethyl)phenyl)-3-(naphthalen-2-yl)urea]", "IC50": 1000},
      {"smiles": "O=C(Nc1ccc(Cc2ccccc2)cc1)Nc1ccc(Cl)c(C(F)(F)F)c1", "note": "[Example 12, 1-(4-Benzylphenyl)-3-(4-chloro-3-(trifluoromethyl)phenyl)urea]", "IC50": 1000},
      {"smiles": "CCc1ccc(NC(=O)Nc2ccc(Cl)c(C(F)(F)F)c2)cc1", "note": "[Example 13, 1-(4-Chloro-3-(trifluoromethyl)phenyl)-3-(4-ethylphenyl)urea]", "IC50": 1000},
      {"smiles": "Cc1cc(NC(=O)Nc2ccc3c(c2)OC(F)(F)O3)ccc1Cl", "note": "[Example 14, 1-(4-Chloro-3-methylphenyl)-3-(2,2-difluorobenzo[d][1,3]dioxol-5-yl)urea]", "IC50": 1000},
      {"smiles": "O=C(Nc1cccc(C(F)(F)F)c1)Nc1ccc2c(c1)OC(F)(F)O2", "note": "[Example 15, 1-(2,2-difluorobenzo[d][1,3]dioxol-5-yl)-3-(3-(trifluoromethyl)phenyl)urea]", "IC50": 1000},
      {"smiles": "O=C(Nc1ccccc1)Nc1ccc(Cl)c(C(F)(F)F)c1", "note": "[Example 16, 1-(4-Chloro-3-(trifluoromethyl)phenyl)-3-phenylurea]", "IC50": 3000},
      {"smiles": "CCCCOC(=O)c1ccc(NC(=O)Nc2ccc(Cl)c(C(F)(F)F)c2)cc1", "note": "[Example 17, Butyl 4-(3-(4-chloro-3-(trifluoromethyl)phenyl)ureido)benzoate]", "IC50": 600},
      {"smiles": "O=C(Nc1ccc(Oc2ccccc2)cc1)Nc1ccc(Cl)c(C(F)(F)F)c1", "note": "[Example 18, 1-(4-Chloro-3-(trifluoromethyl)phenyl)-3-(4-phenoxyphenyl)urea]", "IC50": 600},
      {"smiles": "O=C(Nc1cccc(NC(=O)Nc2ccc(Cl)c(C(F)(F)F)c2)c1)Nc1ccc(Cl)c(C(F)(F)F)c1", "note": "[Example 19]", "IC50": 1000},
      {"smiles": "C#CCCC1(CCNC(=O)c2cc(Oc3ccc(NC(=O)Nc4ccc(Cl)c(C(F)(F)F)c4)cc3)ccn2)N=N1", "note": "[Probe compound, N-(2-(3-(but-3-yn-1-yl)-3H-diazirin-3-yl)ethyl)-4-(4-(3-(4-chloro-3-(trifluoromethyl)phenyl)ureido)phenoxy)picolinamide]", "IC50": 10000},
      {"smiles": "O=C(Nc1ccccc1)Nc1ccc2c(c1)OC(F)(F)O2", "note": "[Reference Example 1, 1-(2,2-Difluorobenzo[d][1,3]dioxol-5-yl)-3-phenylurea]", "IC50": "> 100000"},
      {"smiles": "Cc1ccc(NC(=O)Nc2ccc3c(c2)OC(F)(F)O3)cc1", "note": "[Reference Example 2, 1-(2,2-Difluorobenzo[d][1,3]dioxol-5-yl)-3-(p-tolyl)urea]", "IC50": "> 100000"},
      {"smiles": "Cc1cc(C)c(NC(=O)Nc2ccc3c(c2)OC(F)(F)O3)c(C)c1", "note": "[Reference Example 3, 1-(2,2-Difluorobenzo[d][1,3]dioxol-5-yl)-3-mesitylurea]", "IC50": "> 100000"},
      {"smiles": "CCCCCCCCNC(=O)Nc1ccc2c(c1)OC(F)(F)O2", "note": "[Reference Example 4, 1-(2,2-Difluorobenzo[d][1,3]dioxol-5-yl)-3-octylurea]", "IC50": "> 100000"},
      {"smiles": "CNC(=O)c1cc(Oc2ccc(NC(=O)Nc3ccccc3)cc2)ccn1", "note": "[Reference Example 5, N-Methyl-4-(4-(3-phenylureido)phenoxy)picolinamide]", "IC50": "> 100000"}
    ]},
    {"test_system": "S. aureus NCTC 8325 persister cells", "assay": "Persister cell assay II", "format": "cell-based", "details": "TSB, with or without 30 μg/mL oxacillin; 20 h or 70 h; 2.4 μM PK/X17-1-150 or PK/X17-4-011, 24 μM sorafenib or PK/X17-2-011, 5 μg/mL ciprofloxacin", "experimental": "Persister cell assay II. Tryptic soy broth (50 mL in 250 mL culture flasks) was inoculated 1:1000 with overnight cultures of NCTC 8325 and grown at 37° C. and 200 rpm until an OD600 of 4 was reached or overnight (ON). Serial dilution were prepared and plated to determine the cell numbers in the inoculum. […]. […] After 20 h (A) or 70 h (B) of treatment, cells were harvested, washed two times with PBS (10000×g, 3 min), serially diluted and plated on agar plates for determination of surviving cell numbers.", "values": [
      {"smiles": "O=C(Nc1ccccc1)Nc1ccc2c(c1)OC(F)(F)O2", "note": "[Reference Example 1, 1-(2,2-Difluorobenzo[d][1,3]dioxol-5-yl)-3-phenylurea]", "viable persister cells (CFU/mL) vs DMSO control": "no change"},
      {"smiles": "CNC(=O)c1cc(Oc2ccc(NC(=O)Nc3ccccc3)cc2)ccn1", "note": "[Reference Example 5, N-Methyl-4-(4-(3-phenylureido)phenoxy)picolinamide]", "viable persister cells (CFU/mL) vs DMSO control": "no change"},
      {"smiles": "O=C(O)c1cn(C2CC2)c2cc(N3CCNCC3)c(F)cc2c1=O", "note": "[ciprofloxacin, reference compound]", "viable persister cells (CFU/mL) vs DMSO control": "no change"}
    ]},
    {"test_system": "S. aureus NCTC 8325 persister cells", "assay": "Persister cell assay I", "format": "cell-based", "details": "gentamicin-selected persisters in PBS; 70 h; 2.4 μM PK/X17-1-150, 24 μM sorafenib, 5 μg/mL ciprofloxacin", "values": [
      {"smiles": "O=C(O)c1cn(C2CC2)c2cc(N3CCNCC3)c(F)cc2c1=O", "note": "[ciprofloxacin, reference compound]", "viable persister cells (CFU/mL) vs DMSO control": "no change"}
    ]}
  ]
}
